# In paper PMC5218480 (PLoS ONE, 2017):
# System: MV-4-11 cells
# Test: Gene expression microarray analysis (Affymetrix PrimeView) and GSEA
# Type: cell-based, human
# Design: RFU PODN (11730768_x_at) / Fold change /veh PODN (11730768_x_at) / RFU LINC00158 (11744669_a_at) / Fold change /veh LINC00158 (11744669_a_at) / RFU DUSP10 (11751237_a_at) / Fold change /veh DUSP10 (11751237_a_at) / RFU ID3 (11757404_x_at) / Fold change /veh ID3 (11757404_x_at) / RFU PLEKHG5 (11737974_s_at) / Fold change /veh PLEKHG5 (11737974_s_at) / RFU LRRC4B (11730491_at) / Fold change /veh LRRC4B (11730491_at) / RFU GIMAP4 (11747438_a_at) / Fold change /veh GIMAP4 (11747438_a_at) / RFU KRT8 (11758183_x_at) / Fold change /veh KRT8 (11758183_x_at) / RFU CNN1 (11734310_a_at) / Fold change /veh CNN1 (11734310_a_at) / RFU VPS37D (11726825_at) / Fold change /veh VPS37D (11726825_at) / RFU C10orf10 (11716522_x_at) / Fold change /veh C10orf10 (11716522_x_at) / RFU KIR2DL2 /// KIR2DL4 /// KIR2DL5A /// KIR2DL5B /// KIR2DS1 /// KIR2DS2 /// KIR2DS3 /// KIR2DS4 /// KIR3DL3 /// KIR3DL3 /// KIR3DS1 (11738374_at) / Fold change /veh KIR2DL2 /// KIR2DL4 /// KIR2DL5A /// KIR2DL5B /// KIR2DS1 /// KIR2DS2 /// KIR2DS3 /// KIR2DS4 /// KIR3DL3 /// KIR3DL3 /// KIR3DS1 (11738374_at) / RFU C1QL1 (11718748_at) / Fold change /veh C1QL1 (11718748_at) / RFU TMPRSS4 (11747572_a_at) / Fold change /veh TMPRSS4 (11747572_a_at) / RFU HAMP (11756126_x_at) / Fold change /veh HAMP (11756126_x_at) / RFU RNFT2 (11725882_a_at) / Fold change /veh RNFT2 (11725882_a_at) / RFU NR4A2 (11747474_a_at) / Fold change /veh NR4A2 (11747474_a_at) / RFU ABCC12 (11746883_a_at) / Fold change /veh ABCC12 (11746883_a_at) / RFU TMEM136 (11760407_x_at) / Fold change /veh TMEM136 (11760407_x_at) / RFU CLDN22 /// WWC2 (11732394_at) / Fold change /veh CLDN22 /// WWC2 (11732394_at) / RFU HLA-DPB1 (11760878_x_at) / Fold change /veh HLA-DPB1 (11760878_x_at) / RFU SPINT1 (11716480_a_at) / Fold change /veh SPINT1 (11716480_a_at) / RFU GAP43 (11754022_s_at) / Fold change /veh GAP43 (11754022_s_at) / RFU A4GNT (11735810_at) / Fold change /veh A4GNT (11735810_at) / RFU PRB3 (11715151_x_at) / Fold change /veh PRB3 (11715151_x_at) / RFU TUBB4B (11761932_at) / Fold change /veh TUBB4B (11761932_at) / RFU CAPN14 (11732068_a_at) / Fold change /veh CAPN14 (11732068_a_at) / RFU TMCC2 (11721928_a_at) / Fold change /veh TMCC2 (11721928_a_at) / RFU IRGQ (11745062_a_at) / Fold change /veh IRGQ (11745062_a_at) / RFU FAM174B (11720279_a_at) / Fold change /veh FAM174B (11720279_a_at) / RFU TMPRSS4 (11748680_a_at) / Fold change /veh TMPRSS4 (11748680_a_at) / RFU FAM212B (11763350_a_at) / Fold change /veh FAM212B (11763350_a_at) / RFU PLEKHG5 (11743358_a_at) / Fold change /veh PLEKHG5 (11743358_a_at) / RFU ZSCAN30 (11745921_a_at) / Fold change /veh ZSCAN30 (11745921_a_at) / RFU CMKLR1 (11741424_a_at) / Fold change /veh CMKLR1 (11741424_a_at) / RFU LOC101060620 /// MAPK8IP1 (11723275_at) / Fold change /veh LOC101060620 /// MAPK8IP1 (11723275_at) / RFU SPTSSB (11747773_x_at) / Fold change /veh SPTSSB (11747773_x_at) / RFU PRSS12 (11739890_at) / Fold change /veh PRSS12 (11739890_at) / RFU BIN1 (11741810_x_at) / Fold change /veh BIN1 (11741810_x_at) / RFU WNT11 (11732464_a_at) / Fold change /veh WNT11 (11732464_a_at) / RFU C10orf10 (11716521_a_at) / Fold change /veh C10orf10 (11716521_a_at) / RFU C5orf56 (11738089_at) / Fold change /veh C5orf56 (11738089_at) / RFU CYB561 (11721691_x_at) / Fold change /veh CYB561 (11721691_x_at) / RFU ANKRD19P (11752326_a_at) / Fold change /veh ANKRD19P (11752326_a_at) / RFU OR2T12 /// OR2T33 /// OR2T8 (11738714_s_at) / Fold change /veh OR2T12 /// OR2T33 /// OR2T8 (11738714_s_at) / RFU VCAN (11748164_a_at) / Fold change /veh VCAN (11748164_a_at) / RFU JSRP1 (11732532_at) / Fold change /veh JSRP1 (11732532_at) / RFU KRTAP10-11 (11738290_x_at) / Fold change /veh KRTAP10-11 (11738290_x_at) / RFU MYO3A (11730013_a_at) / Fold change /veh MYO3A (11730013_a_at) / RFU EBF3 (11725865_a_at) / Fold change /veh EBF3 (11725865_a_at) / RFU CAMK2N1 (11719241_x_at) / Fold change /veh CAMK2N1 (11719241_x_at) / RFU C5orf56 (11738088_a_at) / Fold change /veh C5orf56 (11738088_a_at) / RFU OLFML3 (11715873_a_at) / Fold change /veh OLFML3 (11715873_a_at) / RFU LOC100653217 /// NTM (11731650_a_at) / Fold change /veh LOC100653217 /// NTM (11731650_a_at) / RFU MAPK11 (11762145_a_at) / Fold change /veh MAPK11 (11762145_a_at) / RFU FIZ1 (11724087_x_at) / Fold change /veh FIZ1 (11724087_x_at) / RFU OASL (11726364_x_at) / Fold change /veh OASL (11726364_x_at) / RFU SOX15 (11748057_x_at) / Fold change /veh SOX15 (11748057_x_at) / RFU CD79A (11719716_a_at) / Fold change /veh CD79A (11719716_a_at) / RFU HIST1H1D (11736915_at) / Fold change /veh HIST1H1D (11736915_at) / RFU CASKIN2 (11723855_a_at) / Fold change /veh CASKIN2 (11723855_a_at) / RFU LOC730098 (11760151_x_at) / Fold change /veh LOC730098 (11760151_x_at) / RFU OR4N2 (11742367_at) / Fold change /veh OR4N2 (11742367_at) / RFU PRRT2 (11749266_a_at) / Fold change /veh PRRT2 (11749266_a_at) / RFU SNX32 (11753110_a_at) / Fold change /veh SNX32 (11753110_a_at) / RFU CDHR5 (11726645_a_at) / Fold change /veh CDHR5 (11726645_a_at) / RFU RCAN1 (11760418_a_at) / Fold change /veh RCAN1 (11760418_a_at) / RFU FAM167A (11723789_a_at) / Fold change /veh FAM167A (11723789_a_at) / RFU FAM26E (11764081_at) / Fold change /veh FAM26E (11764081_at) / RFU ISYNA1 (11749810_s_at) / Fold change /veh ISYNA1 (11749810_s_at) / RFU ACY1 (11761880_at) / Fold change /veh ACY1 (11761880_at) / RFU 11764098_at / Fold change /veh 11764098_at / RFU SAMD14 (11745864_x_at) / Fold change /veh SAMD14 (11745864_x_at) / RFU NPB (11741838_a_at) / Fold change /veh NPB (11741838_a_at) / RFU TMPRSS6 (11731388_a_at) / Fold change /veh TMPRSS6 (11731388_a_at) / RFU KRTAP10-2 (11738614_at) / Fold change /veh KRTAP10-2 (11738614_at) / RFU ARHGAP8 /// PRR5-ARHGAP8 (11727945_x_at) / Fold change /veh ARHGAP8 /// PRR5-ARHGAP8 (11727945_x_at) / RFU KRTAP5-7 /// NADSYN1 (11734609_at) / Fold change /veh KRTAP5-7 /// NADSYN1 (11734609_at) / RFU RASL12 (11751679_a_at) / Fold change /veh RASL12 (11751679_a_at) / RFU CDKN2B (11736163_a_at) / Fold change /veh CDKN2B (11736163_a_at) / RFU PRF1 (11729649_at) / Fold change /veh PRF1 (11729649_at) / RFU, ZNF638 /// ZNF638-IT1 / Fold change vs veh, ZNF638 /// ZNF638-IT1 / RFU, PANK3 / Fold change vs veh, PANK3 / RFU, SH3YL1 / Fold change vs veh, SH3YL1 / RFU, ZEB2 / Fold change vs veh, ZEB2 / RFU, NRIP1 / Fold change vs veh, NRIP1 / RFU, PTTG1IP / Fold change vs veh, PTTG1IP / RFU, CAPN2 / Fold change vs veh, CAPN2 / RFU, MED14 / Fold change vs veh, MED14 / RFU, SNORA58 / Fold change vs veh, SNORA58 / RFU, C1orf63 / Fold change vs veh, C1orf63 / RFU, LRRFIP1 / Fold change vs veh, LRRFIP1 / RFU, NDUFAF7 / Fold change vs veh, NDUFAF7 / RFU, SLC12A2 / Fold change vs veh, SLC12A2 / RFU, IBTK / Fold change vs veh, IBTK / RFU, ESF1 / Fold change vs veh, ESF1 / Fold change vs veh, TMEM50B / RFU, TAOK1 / Fold change vs veh, TAOK1 / RFU, ACBD3 / Fold change vs veh, ACBD3 / RFU, TMA16 / Fold change vs veh, TMA16 / RFU, RWDD3 / Fold change vs veh, RWDD3 / RFU, BCAT1 / Fold change vs veh, BCAT1 / RFU, EDEM3 / Fold change vs veh, EDEM3 / RFU, TMEM33 / Fold change vs veh, TMEM33 / RFU, WDR75 / Fold change vs veh, WDR75 / RFU, AHCTF1 / Fold change vs veh, AHCTF1 / RFU, TFRC / Fold change vs veh, TFRC / RFU, ZDHHC17 / Fold change vs veh, ZDHHC17 / RFU, NOM1 / Fold change vs veh, NOM1 / RFU, ARL8B / Fold change vs veh, ARL8B / RFU, ZBTB11 / Fold change vs veh, ZBTB11 / RFU, TAMM41 / Fold change vs veh, TAMM41 / RFU, KIAA1704 /// LOC100996395 / Fold change vs veh, KIAA1704 /// LOC100996395 / RFU, ING1 / Fold change vs veh, ING1 / RFU, TRMT61B / Fold change vs veh, TRMT61B / RFU, FUBP3 / Fold change vs veh, FUBP3 / RFU, TP53 / Fold change vs veh, TP53 / RFU, TNKS2 / Fold change vs veh, TNKS2 / RFU, ZFP14 / Fold change vs veh, ZFP14 / RFU, ACTR2 / Fold change vs veh, ACTR2 / RFU, PPP3R1 / Fold change vs veh, PPP3R1 / RFU, PIK3R1 / Fold change vs veh, PIK3R1 / RFU, HNRNPA1 / Fold change vs veh, HNRNPA1 / RFU, RNF170 / Fold change vs veh, RNF170 / RFU, ZNF28 / Fold change vs veh, ZNF28 / RFU, RNGTT / Fold change vs veh, RNGTT / RFU, OGT / Fold change vs veh, OGT / RFU, BRD1 / Fold change vs veh, BRD1 / RFU, MARS / Fold change vs veh, MARS / RFU, ZNF655 / Fold change vs veh, ZNF655 / RFU, FAHD1 / Fold change vs veh, FAHD1 / RFU, BDP1 / Fold change vs veh, BDP1 / RFU, LRRCC1 / Fold change vs veh, LRRCC1 / RFU, ARID1A / Fold change vs veh, ARID1A / RFU, ZNF146 / Fold change vs veh, ZNF146 / RFU, ZNF330 / Fold change vs veh, ZNF330 / RFU, GPN3 / Fold change vs veh, GPN3 / RFU, C9orf123 / Fold change vs veh, C9orf123 / RFU, N4BP2L2 / Fold change vs veh, N4BP2L2 / RFU, ARFIP1 / Fold change vs veh, ARFIP1 / RFU, FAM179B / Fold change vs veh, FAM179B / RFU, BCL10 / Fold change vs veh, BCL10 / RFU, UHRF1BP1L / Fold change vs veh, UHRF1BP1L / RFU, BET1 / Fold change vs veh, BET1 / RFU, CNOT2 / Fold change vs veh, CNOT2 / RFU, ZNF268 / Fold change vs veh, ZNF268 / Fold change vs veh, ZNF507 / RFU, DGCR2 / Fold change vs veh, DGCR2 / RFU, WDSUB1 / Fold change vs veh, WDSUB1 / Fold change vs veh, HSP90B1 /// MIR3652 / RFU, ADSS / Fold change vs veh, ADSS / RFU, GK / Fold change vs veh, GK / RFU, ZNF148 / Fold change vs veh, ZNF148 / RFU, TAF9 / Fold change vs veh, TAF9 / RFU, SLC1A5 / Fold change vs veh, SLC1A5 / RFU, SLMO2 / Fold change vs veh, SLMO2 / RFU, ABCC4 / Fold change vs veh, ABCC4 / RFU, LOC101060439 /// RAP1B / Fold change vs veh, LOC101060439 /// RAP1B / RFU, RFX7 / Fold change vs veh, RFX7 / RFU, GTPBP10 / Fold change vs veh, GTPBP10 / RFU, CNEP1R1 / Fold change vs veh, CNEP1R1 / RFU, BIVM-ERCC5 /// ERCC5 / Fold change vs veh, BIVM-ERCC5 /// ERCC5 / RFU, ILF3 / Fold change vs veh, ILF3 / RFU 11762660_at / Fold change /veh 11762660_at / RFU VCAN (11757783_s_at) / Fold change /veh VCAN (11757783_s_at) / RFU DDX43 (11728927_at) / Fold change /veh DDX43 (11728927_at) / RFU KRT8 (11758188_x_at) / Fold change /veh KRT8 (11758188_x_at) / RFU NKD1 (11759106_at) / Fold change /veh NKD1 (11759106_at) / RFU SRD5A1 (11742802_a_at) / Fold change /veh SRD5A1 (11742802_a_at) / RFU TPSAB1 /// TPSB2 (11721975_s_at) / Fold change /veh TPSAB1 /// TPSB2 (11721975_s_at) / RFU GSTM3 (11746129_a_at) / Fold change /veh GSTM3 (11746129_a_at) / RFU IL23R (11737362_x_at) / Fold change /veh IL23R (11737362_x_at) / RFU TMEM51 (11727254_a_at) / Fold change /veh TMEM51 (11727254_a_at) / RFU PIWIL2 (11732686_x_at) / Fold change /veh PIWIL2 (11732686_x_at) / RFU ORM1 (11744905_x_at) / Fold change /veh ORM1 (11744905_x_at) / RFU CCDC152 (11743942_at) / Fold change /veh CCDC152 (11743942_at) / RFU ECM1 (11717891_a_at) / Fold change /veh ECM1 (11717891_a_at) / RFU IL23R (11748794_a_at) / Fold change /veh IL23R (11748794_a_at) / RFU TNFAIP8L3 (11732012_x_at) / Fold change /veh TNFAIP8L3 (11732012_x_at) / RFU MBOAT4 (11741988_at) / Fold change /veh MBOAT4 (11741988_at) / RFU 11764193_at / Fold change /veh 11764193_at / RFU TMEM53 (11763286_at) / Fold change /veh TMEM53 (11763286_at) / RFU MAGEB2 (11727129_at) / Fold change /veh MAGEB2 (11727129_at) / RFU TMEM200A (11744735_a_at) / Fold change /veh TMEM200A (11744735_a_at) / RFU CCDC152 (11751479_a_at) / Fold change /veh CCDC152 (11751479_a_at) / RFU FAM211A (11726209_a_at) / Fold change /veh FAM211A (11726209_a_at) / RFU RGS16 (11746705_a_at) / Fold change /veh RGS16 (11746705_a_at) / RFU VCAN (11755009_s_at) / Fold change /veh VCAN (11755009_s_at) / RFU RHOB (11743442_s_at) / Fold change /veh RHOB (11743442_s_at) / RFU RGS16 (11720943_a_at) / Fold change /veh RGS16 (11720943_a_at) / RFU RGS16 (11720944_at) / Fold change /veh RGS16 (11720944_at) / RFU, VPS4B / Fold change vs veh, VPS4B / RFU, CREB1 / Fold change vs veh, CREB1 / RFU, DNAJC13 / Fold change vs veh, DNAJC13 / RFU, GNAQ / Fold change vs veh, GNAQ / RFU, CDK5R1 / Fold change vs veh, CDK5R1 / RFU, ZRANB3 / Fold change vs veh, ZRANB3 / RFU, CUL4A / Fold change vs veh, CUL4A / RFU, CCNY / Fold change vs veh, CCNY / RFU, UFL1 / Fold change vs veh, UFL1 / RFU, COG3 / Fold change vs veh, COG3 / RFU, DIAPH2 / Fold change vs veh, DIAPH2 / RFU, SKA2 / Fold change vs veh, SKA2 / RFU, AFF3 / Fold change vs veh, AFF3 / RFU, LMF1 / Fold change vs veh, LMF1 / RFU, IPO11 / Fold change vs veh, IPO11 / RFU, DFFB / Fold change vs veh, DFFB / RFU, FOXP1 / Fold change vs veh, FOXP1 / RFU, CARD8 / Fold change vs veh, CARD8 / RFU, STRN3 / Fold change vs veh, STRN3 / RFU, ADK / Fold change vs veh, ADK / RFU, RASSF2 / Fold change vs veh, RASSF2 / RFU, WIPF1 / Fold change vs veh, WIPF1 / RFU, LARP1B / Fold change vs veh, LARP1B / RFU, RASA1 / Fold change vs veh, RASA1 / RFU, RB1 / Fold change vs veh, RB1 / RFU, PPFIA1 / Fold change vs veh, PPFIA1 / RFU, MAT2A / Fold change vs veh, MAT2A / RFU, CCT5 / Fold change vs veh, CCT5 / RFU, WDR92 / Fold change vs veh, WDR92 / RFU, CUX1 / Fold change vs veh, CUX1 / RFU, TTC7A / Fold change vs veh, TTC7A / RFU, TMEM135 / Fold change vs veh, TMEM135 / RFU, DEPTOR / Fold change vs veh, DEPTOR / RFU, CPM / Fold change vs veh, CPM / RFU, DNAJB6 / Fold change vs veh, DNAJB6 / RFU, CACNA2D3 / Fold change vs veh, CACNA2D3 / RFU, DTX4 / Fold change vs veh, DTX4 / RFU, TFCP2 / Fold change vs veh, TFCP2 / RFU, GMCL1 /// GMCL1P1 / Fold change vs veh, GMCL1 /// GMCL1P1 / RFU, AEBP2 / Fold change vs veh, AEBP2 / RFU, SNHG1 /// SNORD22 /// SNORD25 /// SNORD26 /// SNORD27 /// SNORD28 /// SNORD29 /// SNORD31 / Fold change vs veh, SNHG1 /// SNORD22 /// SNORD25 /// SNORD26 /// SNORD27 /// SNORD28 /// SNORD29 /// SNORD31 / Fold change (Aza/veh), C12orf56 (ProbeSet 11735607_a_at) / Fold change (ACY-1035/veh), C12orf56 (ProbeSet 11735607_a_at) / Fold change (Aza/veh), FGFR1OP (ProbeSet 11751329_s_at) / Fold change (ACY-1035/veh), FGFR1OP (ProbeSet 11751329_s_at) / Fold change (Aza/veh), VPS36 (ProbeSet 11739960_a_at) / Fold change (ACY-1035/veh), VPS36 (ProbeSet 11739960_a_at) / RFU SYPL1 (11715823_x_at) / Fold change /veh SYPL1 (11715823_x_at) / RFU IGFBP7 (11715501_s_at) / Fold change /veh IGFBP7 (11715501_s_at) / RFU REEP3 (11722064_at) / Fold change /veh REEP3 (11722064_at) / RFU IGLL1 (11728026_x_at) / Fold change /veh IGLL1 (11728026_x_at): dose or concentration left out as unconfirmed
# Conditions: MV-4-11 cells, 48 hours
smiles,measurement,value
Nc1ncn([C@@H]2O[C@H](CO)[C@@H](O)[C@H]2O)c(=O)n1 [azacitidine],Fold change /veh ANKRD19P (11752326_a_at),1.10
